Assay results from patent publication US20220348569A1 (priority 2021, published 2022).
“Also recorded” adds a separate entry of the source. Like-named read-outs stand apart in the source and are kept apart here.

Assays:
in vitro [1] = settings: human
in vitro [2] = settings: human; remark: listed apart in the source
in vitro [3] = settings: human, Caco-2, pH 7.4
in vivo = settings: female, rat; for AUC(0-t): Sprague Dawley
[4] = system: SARS-CoV-2 full Spike wild-type (Wuhan-Hu-1) mediated cell-to-cell fusion; assay: cells; type: cell-based; settings: for inhibition at 0.25 µM: Severe acute respiratory syndrome coronavirus 2, Jurkat, at 250 nM, read-out: inhibitory activity of SARS-CoV-2 mediated cell-to-cell fusion
[5] = rat, in vivo
[6] = biological target: SARS-CoV-2 spike (active trimer) His-tag (Severe acute respiratory syndrome coronavirus 2, UniProt P0DTC2); type: binding
MERS-CoV pseudovirus [7] = assay: microbe, parasite or virus in culture; type: cell-based; settings: Middle East respiratory syndrome-related coronavirus, Huh-7
SARS-CoV pseudovirus [8] = assay: microbe, parasite or virus in culture; type: cell-based; settings: Severe acute respiratory syndrome coronavirus, HT-1080
SARS-CoV-2 pseudovirus [9] = assay: microbe, parasite or virus in culture; type: cell-based; settings: for IC50: Severe acute respiratory syndrome-related coronavirus, read-out: IC50s against SARS-CoV-2 pseudovirus over the cell lines
[10] = system: SARS-CoV-2 (US_WA-1/2020); type: cell-based
MERS-CoV pseudovirus [11] = assay: microbe, parasite or virus in culture; type: cell-based; settings: Middle East respiratory syndrome-related coronavirus, MRC5
SARS-CoV pseudovirus [12] = assay: microbe, parasite or virus in culture; type: cell-based; settings: Severe acute respiratory syndrome coronavirus, A549-ACE2
SARS-CoV pseudovirus [13] = assay: microbe, parasite or virus in culture; type: cell-based; settings: Severe acute respiratory syndrome coronavirus, 293T/ACE2
MERS-CoV pseudovirus [14] = assay: microbe, parasite or virus in culture; type: cell-based; settings: Middle East respiratory syndrome-related coronavirus, read-out: IC50 against MERS-CoV pseudovirus
in vitro [15] = settings: human; remark: listed apart in the source
SARS-CoV pseudovirus [16] = type: cell-based
SARS-CoV-2 pseudovirus [17] = assay: microbe, parasite or virus in culture; type: cell-based; settings: Severe acute respiratory syndrome-related coronavirus, A549-ACE2
in vitro [18] = settings: both, human, plasma
[19] = both, human, microsomes
[20] = female, Sprague Dawley, iv, 5 mg/kg

C=CCN1C(=O)/C(=C/c2ccc(-c3cc(C(=O)O)cc(C(=O)O)c3)o2)SC1=S [Compound 19]
CC50 (in vitro [1]): > 100000 nM
CC50 (in vitro [2]): > 100000 nM

CC(C)NCC(O)COc1cccc2ccccc12 (centres unmarked) [Propranolol]
Papp (in vitro [3]): 19.7 ×10⁻⁶ cm/s

O=C(O)c1cccc(-c2ccc(/C=C3\SC(=S)N(CCc4ccccc4)C3=O)o2)c1 [Compound 2]
AUC(0-t) (in vivo; iv, 5 mg/kg): 17100 ng·h/mL
AUC(0-t) (in vivo; po, 10 mg/kg): 319 ng·h/mL
half-life (in vivo; Sprague-Dawley, iv, 5 mg/kg): 3.5 to 3.9 h
inhibition of SARS-CoV-2 mediated cell-to-cell fusion (in words) [4]: potently inhibited the cell-to-cell fusion even at the lowest dose
inhibition at 0.25 µM [4]: 62 to 79%
C0 [5, 20]: 1710.87 ng/mL
CLobs [5, 20]: 0.00027 mg/kg/(ng/mL)/hr
MRT0-inf_obs [5, 20]: 5.09 h
Vss_obs [5, 20]: 0.0014 mg/kg/(ng/mL)
Vss_obs ([5]; female, Sprague Dawley, po, 10 mg/kg): 0 mg/kg/(ng/mL)
F % ([5]; female, Sprague-Dawley): 0.9%
MRT0-inf_obs ([5]; female, Sprague-Dawley, po, 10 mg/kg): 7.28 h
Vz/F_obs ([5]; po, 10 mg/kg): 0.1759 mg/kg/(ng/mL)
ka [6]: 872 M⁻¹ s⁻¹
IC50 (MERS-CoV pseudovirus [7]): 95 to 158 nM
IC50 (SARS-CoV pseudovirus [8]): 19.3 to 39 nM
antiviral activity against SARS-CoV-2 pseudovirus (in words) (SARS-CoV-2 pseudovirus [9]): low nanomolar activity; also recorded: best antiviral potency; also recorded: low nM IC50
IC50 (SARS-CoV-2 pseudovirus [9]): 22.8 to 58 nM
IC100 [10]: 1.25 µM
IC50 (MERS-CoV pseudovirus [11]): 76.5 to 123 nM
IC50 (SARS-CoV pseudovirus [12]): 98 to 157 nM
IC50 (SARS-CoV pseudovirus [13]): 13.8 to 17 nM

O=C(O)c1cccc(-c2ccc(/C=C3\SC(=S)N(CCc4ccccc4)C3=O)o2)c1F [Compound 7]
IC50 (MERS-CoV pseudovirus [14]): < 1000 nM
IC100 [10]: 5 µM

O=C(O)c1cc(-c2ccc(/C=C3\SC(=S)N(C4CCCCC4)C3=O)o2)ccc1Cl [Compound 18]
CC50 (in vitro [15]): > 100000 nM
CC50 (in vitro [1]): > 100000 nM
IC50 (MERS-CoV pseudovirus [7]): 10.5 ± 0.9 nM
antiviral activity against SARS-CoV-2 pseudovirus (in words) (SARS-CoV-2 pseudovirus [9]): excellent antiviral activity; also recorded: low nM IC50
CC50 (in vitro [2]): > 100000 nM

O=C(O)c1cc(-c2ccc(/C=C3\SC(=S)N(CCc4ccccc4)C3=O)o2)ccc1Br [Compound 8]
antiviral activity against SARS-CoV-2 pseudovirus (in words) (SARS-CoV-2 pseudovirus [9]): excellent antiviral activity
IC50 (MERS-CoV pseudovirus [14]): < 1000 nM
IC100 [10]: 5 µM

Cc1ccc(-c2ccc(/C=C3\SC(=S)N(CC(C)C)C3=O)o2)cc1C(=O)O [Compound 22]
CC50 (in vitro [1]): 68000 ± 4000 nM
CC50 (in vitro [2]): 70000 ± 4000 nM

Cc1c(C(=O)O)cncc1-c1ccc(/C=C2\SC(=S)N(CCc3ccccc3)C2=O)o1 [Compound 9]
IC100 [10]: 2.5 µM

O=C(O)c1cccc(-c2ccc(/C=C3\SC(=S)N(C4CCCCC4)C3=O)o2)c1 [Compound 25]
CC50 (in vitro [15]): > 100000 nM
CC50 (in vitro [1]): > 100000 nM
IC50 (MERS-CoV pseudovirus [7]): 247 ± 47 nM
antiviral activity against SARS-CoV-2 pseudovirus (in words) (SARS-CoV-2 pseudovirus [9]): displayed antiviral potency
CC50 (in vitro [2]): > 100000 nM

Cc1ccc(-c2ccc(/C=C3\SC(=S)N(CCc4ccccc4)C3=O)o2)cc1C(=O)O [Compound 4]
inhibition of SARS-CoV-2 mediated cell-to-cell fusion (in words) [4]: potently inhibited the cell-to-cell fusion even at the lowest dose
inhibition at 0.25 µM [4]: 62 to 79%
IC50 (MERS-CoV pseudovirus [7]): 95 to 158 nM
antiviral activity against SARS-CoV-2 pseudovirus (in words) (SARS-CoV-2 pseudovirus [9]): low nanomolar activity; also recorded: excellent antiviral activity
IC50 (SARS-CoV-2 pseudovirus [9]): 26 to 73 nM
IC100 [10]: 2.5 µM
IC50 (MERS-CoV pseudovirus [11]): 76.5 to 123 nM

CCN1C(=O)/C(=C/c2ccc(-c3cccc(C(=O)O)c3)o2)SC1=S [Compound 13]
CC50 (in vitro [1]): 74000 ± 3000 nM
CC50 (in vitro [2]): > 100000 nM

CN1C(=O)/C(=C/c2ccc(-c3cccc(C(=O)O)c3)o2)SC1=S [Compound 15]
CC50 (in vitro [1]): 53000 ± 8000 nM
CC50 (in vitro [2]): > 100000 nM

C=CCN1C(=O)/C(=C/c2ccc(-c3cccc(C(=O)O)c3)o2)SC1=S [Compound 17]
CC50 (in vitro [1]): > 100000 nM
CC50 (in vitro [2]): > 100000 nM

CCN1C(=O)/C(=C/c2ccc(-c3ccc(Cl)c(C(=O)O)c3)o2)SC1=S [Compound 24]
CC50 (in vitro [15]): ~100000 nM
CC50 (in vitro [1]): 78000 ± 3000 nM
IC50 (MERS-CoV pseudovirus [7]): 88 ± 13 nM
CC50 (in vitro [2]): > 100000 nM

Cc1c(C(=O)O)cccc1-c1ccc(/C=C2\SC(=S)N(CCc3ccccc3)C2=O)o1 [Compound 5]
inhibition of SARS-CoV-2 mediated cell-to-cell fusion (in words) [4]: only inhibited the SARS-CoV-2 mediated cell-to-cell fusion at the higher dose (4 μM)
activity against SARS-CoV pseudovirus (in words) (SARS-CoV pseudovirus [16]): poor activity
IC50 (SARS-CoV-2 pseudovirus [17]): > 2000 nM
IC50 (MERS-CoV pseudovirus [14]): > 2000 nM
IC100 [10]: >10 µM

CC(=O)CC(c1ccccc1)c1c(O)c2ccccc2oc1=O (centres unmarked) [Warfarin]
fraction unbound (in vitro [18]): 0.018

O=C1NC(=S)S/C1=C\c1ccc(-c2ccc(C(=O)O)c(Cl)c2)o1 [Compound 21]
CC50 (in vitro [1]): > 100000 nM
CC50 (in vitro [2]): > 100000 nM

O=C(O)c1cc(-c2ccc(/C=C3\SC(=S)N(CCc4ccccc4)C3=O)o2)ccc1F [Compound 3]
CC50 (in vitro [1]): 45000 ± 5000 nM
IC50 (MERS-CoV pseudovirus [7]): 95 to 158 nM
IC50 (SARS-CoV pseudovirus [8]): 19.3 to 39 nM
antiviral activity against SARS-CoV-2 pseudovirus (in words) (SARS-CoV-2 pseudovirus [9]): somewhat reduced activity
selectivity index (SI, ratio CC50/IC50) over the cell lines (SARS-CoV-2 pseudovirus [9]): 750->1563
IC50 (SARS-CoV-2 pseudovirus [9]): 60.1 to 120 nM
IC100 [10]: 2.5 µM
IC50 (MERS-CoV pseudovirus [11]): 76.5 to 123 nM
IC50 (SARS-CoV pseudovirus [12]): 98 to 157 nM
IC50 (SARS-CoV pseudovirus [13]): 13.8 to 17 nM

C#CCN1C(=O)/C(=C/c2ccc(-c3ccc(Cl)c(C(=O)O)c3)o2)SC1=S [Compound 23]
antiviral activity against SARS-CoV-2 pseudovirus (in words) (SARS-CoV-2 pseudovirus [9]): did not display any activity at the highest dose tested

O=C1NC(=S)S/C1=C\c1ccc(-c2ccc(Cl)c(C(=O)O)c2)o1 [Compound 12]
antiviral activity against SARS-CoV-2 pseudovirus (in words) (SARS-CoV-2 pseudovirus [9]): did not display any activity at the highest dose tested

NS(=O)(=O)c1ccc(-c2ccc(/C=C3\SC(=S)N(CCc4ccccc4)C3=O)o2)cc1 [Compound 11]
CC50 (in vitro [1]): 13300 ± 2000 nM
IC50 (MERS-CoV pseudovirus [7]): 13.2 ± 3.7 nM

N=C1NC(=O)/C(=C/c2ccc(-c3ccc(Cl)c(C(=O)O)c3)o2)S1 [Compound 26]
CC50 (in vitro [1]): > 100000 nM

COCCN1C(=O)/C(=C/c2ccc(-c3ccc(Cl)c(C(=O)O)c3)o2)SC1=S [Compound 14]
CC50 (in vitro [1]): 81000 ± 1000 nM
CC50 (in vitro [2]): > 100000 nM

C[C@]12CC[C@H]3[C@@H](CCC4=CC(=O)CC[C@@]43C)[C@@H]1CC[C@@H]2O [Testosterone, reference compound]
half-life [19]: 0.188 h

CN1C(=O)/C(=C/c2ccc(-c3cccc(C(=O)O)c3)o2)SC1=S [Compound 27]
CC50 (in vitro [15]): > 100000 nM
IC50 (MERS-CoV pseudovirus [7]): 96 ± 14 nM

O=C1NC(=S)S/C1=C\c1ccc(-c2ccc(C(=O)O)cc2)o1 [Compound 28]
antiviral activity against SARS-CoV-2 pseudovirus (in words) (SARS-CoV-2 pseudovirus [9]): loses the inhibitory activity; also recorded: showed no inhibition

O=C1/C(=C/c2ccc(-c3ccccc3)o2)SC(=S)N1CCc1ccccc1 [Compound 16]
CC50 (in vitro [1]): 75000 ± 7000 nM
CC50 (in vitro [2]): 40000 ± 2000 nM

O=C1C(=Cc2ccc(-c3ccc(Cl)cc3)o2)SC(=S)N1CCc1ccccc1 [Compound 10, 5-((5-(4-chlorophenyl)furan-2-yl)methylene)-3-phenethyl-2-thioxothiazolidin-4-one]
antiviral activity against SARS-CoV-2 pseudovirus (in words) (SARS-CoV-2 pseudovirus [9]): no antiviral potency at the highest dose tested
IC50 (SARS-CoV-2 pseudovirus [9]): > 2000 nM

CCc1ccc(-c2ccc(/C=C3\SC(=S)N(CCc4ccccc4)C3=O)o2)cc1C(=O)O [Compound 6]
CC50 (in vitro [1]): 40000 ± 6000 nM
antiviral activity against SARS-CoV-2 pseudovirus (in words) (SARS-CoV-2 pseudovirus [9]): slightly lower antiviral activity
IC50 (MERS-CoV pseudovirus [14]): < 1000 nM
IC100 [10]: >10 µM

C=CCN1C(=O)/C(=C/c2ccc(-c3cccc(C(=O)O)c3C)o2)SC1=S [Compound 20]
CC50 (in vitro [15]): 84000 ± 4000 nM
CC50 (in vitro [1]): > 100000 nM
IC50 (MERS-CoV pseudovirus [7]): 340 ± 112 nM
CC50 (in vitro [2]): > 100000 nM
